Results reported in patent publication US11136325B2, “Pyrrolopyrimidine and pyrrolopyridine derivatives” (GALAPAGOS NV, priority 2017, dated 2021).

molecular target: Full length human ASK1 protein (Homo sapiens (Human), UniProt Q99683); experiment: ASK1 biochemical assay (AlphaScreen technology, MKK7 phosphorylation); conditions: 150 μM ATP, 400 nM MKK7, 0.8 nM ASK1
Source text: ASK1 and ASK2 biochemical activities were also quantified using AlphaScreen technology which measures the degree of phosphorylation of a protein substrate (MKK7). AlphaScreen technology is based on the binding of a substrate to two types of beads, acceptor and donor. Binding to one bead is through the tag of the substrate protein. Binding of the second bead is through phosphospecific binding of antibody to the phosphosite of the substrate. This forms a sandwich, with the acceptor and donor beads in close proximity. When the donor beads are excited by light in the 680 nm range, a singlet oxygen is released and causes emission of light from the acceptor in the 620 nm range which can be detected using a suitable plate reader.
The phosphorylation site on MKK7 (Ser271/Thr275) is then recognised by a phosphospecific antibody. The phosphospecific antibody is bound to the AlphaScreen acceptor beads through a Protein-A interaction. Phosphorylation of MKK7 by ASK1 or ASK2 subsequently facilitates the bringing together of the donor and acceptor beads into close proximity whereupon the transfer of the singlet oxygen leads to the generation of the AlphaScreen signal.
The assay was configured to run using the following conditions (final concentrations): 150 μM ATP; 400 nM MKK7; 0.8 nM ASK1 and 2 nM ASK2.
100 nL of test compound (starting concentration 6 μM, 11 concentrations with 3 fold serial dilutions) in 100% DMSO was added to low volume 384 well plates. 2.5 μl of ASK1 or ASK2 was added to each well except in the control wells to which 2.5 μl buffer was added. 2.5 μl of MKK7 solution was added to all wells. The plate was incubated for 60 minutes at room temperature. Protein-A acceptor beads and phospho-specific antibody were incubated for 30 minutes and then 2.5 μl of Protein-A acceptor beads/phospho-specific antibody mix (2.5 μg/ml acceptor beads final concentration and 1/800 antibody final dilution) was added to each well. The plate was incubated for 30 minutes at room temperature and then 2.5 μl of GSH donor beads (10 μg/ml […] final concentration) was added to each well. The plate was incubated for a further 60 minutes at room temperature, following which the plate was read on a Perkin Elmer Enspire plate reader.
Calculation of IC50 data, curves and QC analysis were made by using Excel tools and GraphPadPrism software, v. 5.03. Briefly, individual concentration-effect curves were generated by plotting the logarithm of the tested concentration of tested compounds (X) vs. corresponding percent inhibition values (Y) using least squares (ordinary) fit. Fitting equation used for IC50 calculation=log(inhibitor) vs. response−Variable slope (four parameters).

Full length human ASK1 protein, sequence (Q99683 whole entry): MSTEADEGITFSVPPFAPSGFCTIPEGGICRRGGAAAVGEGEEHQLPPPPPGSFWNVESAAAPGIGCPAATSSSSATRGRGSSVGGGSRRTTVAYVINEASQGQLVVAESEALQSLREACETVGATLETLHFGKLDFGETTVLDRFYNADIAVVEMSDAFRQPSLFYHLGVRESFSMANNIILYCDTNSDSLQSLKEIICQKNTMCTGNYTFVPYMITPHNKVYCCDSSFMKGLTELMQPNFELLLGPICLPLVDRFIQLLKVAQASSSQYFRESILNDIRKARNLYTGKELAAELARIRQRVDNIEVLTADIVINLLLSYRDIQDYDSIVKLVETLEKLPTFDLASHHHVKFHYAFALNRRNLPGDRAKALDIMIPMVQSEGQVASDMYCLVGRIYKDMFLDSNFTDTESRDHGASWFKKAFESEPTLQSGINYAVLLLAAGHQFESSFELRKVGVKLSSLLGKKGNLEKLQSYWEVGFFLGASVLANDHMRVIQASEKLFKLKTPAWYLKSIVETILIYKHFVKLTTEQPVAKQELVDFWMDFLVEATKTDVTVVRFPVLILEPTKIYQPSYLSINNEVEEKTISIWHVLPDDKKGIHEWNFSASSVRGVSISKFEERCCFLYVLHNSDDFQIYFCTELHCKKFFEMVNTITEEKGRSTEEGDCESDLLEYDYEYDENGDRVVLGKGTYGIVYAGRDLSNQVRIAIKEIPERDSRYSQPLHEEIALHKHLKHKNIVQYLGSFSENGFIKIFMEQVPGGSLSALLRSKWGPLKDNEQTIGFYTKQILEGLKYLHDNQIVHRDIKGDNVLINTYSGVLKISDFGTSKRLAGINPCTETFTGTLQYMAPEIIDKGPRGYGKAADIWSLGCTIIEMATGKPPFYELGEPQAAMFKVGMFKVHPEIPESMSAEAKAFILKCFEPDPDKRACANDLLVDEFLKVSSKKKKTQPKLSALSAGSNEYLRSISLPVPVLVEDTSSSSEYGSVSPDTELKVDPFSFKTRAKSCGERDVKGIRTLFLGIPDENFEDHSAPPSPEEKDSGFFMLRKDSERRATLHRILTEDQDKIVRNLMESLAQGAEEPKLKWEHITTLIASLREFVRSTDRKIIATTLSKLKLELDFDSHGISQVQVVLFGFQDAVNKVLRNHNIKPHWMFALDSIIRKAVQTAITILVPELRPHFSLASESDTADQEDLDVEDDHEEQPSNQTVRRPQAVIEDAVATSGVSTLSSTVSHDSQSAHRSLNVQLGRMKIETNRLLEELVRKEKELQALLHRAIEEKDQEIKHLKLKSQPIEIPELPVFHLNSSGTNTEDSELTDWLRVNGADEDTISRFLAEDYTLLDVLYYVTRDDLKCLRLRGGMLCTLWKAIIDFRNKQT

| SMILES | Inhibition (pIC50) ASK1 |
| --- | --- |
| Nc1cc(C(=O)NC2CCN(c3ncnc4[nH]cc(Cl)c34)CC2)ccn1 [Compound 4, 2-amino-N-[1-(5-chloro-7H-pyrrolo[2,3-d]pyrimidin-4-yl)-4-piperidyl]pyridine-4-carboxamide] | 9.4 |
| Cc1c[nH]c2ncc(C#N)c(N3CCC(NC(=O)c4cc(N)ncc4F)CC3)c12 [Compound 6, 2-amino-N-[1-(5-cyano-3-methyl-1H-pyrrolo[2,3-b]pyridin-4-yl)-4-piperidyl]-5-fluoro-pyridine-4-carboxamide] | 8.98/—^ |
| Nc1cc(C(=O)NC2CCN(c3ccnc4[nH]cc(Cl)c34)CC2)c(F)cn1 [Compound 7, 2-amino-N-[1-(3-chloro-1H-pyrrolo[2,3-b]pyridin-4-yl)-4-piperidyl]-5-fluoro-pyridine-4-carboxamide] | 8.24/—^ |
| Cc1c[nH]c2ncnc(N3CCC(NC(=O)c4cc(N)ncc4Cl)CC3)c12 [Compound 3, 2-amino-5-chloro-N-[1-(5-methyl-7H-pyrrolo[2,3-d]pyrimidin-4-yl)-4-piperidyl]-pyridine-4-carboxamide] | 8.7 |
| Cc1c[nH]c2ncnc(N3CCC(NC(=O)c4cc(N)ncc4F)CC3)c12 [Compound 1, 2-amino-5-fluoro-N-[1-(5-methyl-7H-pyrrolo[2,3-d]pyrimidin-4-yl)-4-piperidyl]pyridine-4-carboxamide] | 8.72 |
| Cc1cnc(N)cc1C(=O)NC1CCN(c2ncnc3[nH]cc(C)c23)CC1 [Compound 2, 2-amino-5-methyl-N-[1-(5-methyl-7H-pyrrolo[2,3-d]pyrimidin-4-yl)-4-piperidyl]pyridine-4-carboxamide] | 8.9/— |
| Nc1cc(C(=O)NC2CCN(c3ncnc4[nH]cc(Cl)c34)CC2)c(F)cn1 [Compound 5, 2-amino-N-[1-(5-chloro-7H-pyrrolo[2,3-d]pyrimidin-4-yl)-4-piperidyl]-5-fluoro-pyridine-4-carboxamide] | 8.8/— |
